# System: HIV-IIIb
# Assay: Test A: Antiviral Assay in MT4 Cells
# Assay type: cell-based
# Settings: Human immunodeficiency virus 1, IIIB, MT4, 120 h
# Procedure, shortened: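 MT-4 cells pre-infected with HIV-IIIb (0.004 m.o.i.) at 37 °C, then exposed to 3-fold serial compound dilutions (10 concentrations, quadruplicate) in RPMI 1640/10% FBS. After 5 days at 37 °C, viability read by CellTiter-Glo luminescence.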
row,SMILES,EC50
1,"Cc1cc2nc(N3CCOC(c4ccccc4)C3)sc2c(-c2ccc(Cl)cc2)c1[C@H](OC(C)(C)C)C(=O)O (stereo partly drawn) [Compound 327, (2S)-2-tert-butoxy-2-(7-(4-chlorophenyl)-5-methyl-2-(2-phenylmorpholino)benzo[d]thiazol-6-yl)acetic acid]",162 nM

# Same assay, conditions: Human immunodeficiency virus 1, IIIB, MT4, 120 h, Table 1; MT-4 cells infected with HIV-IIIb, 5 days of incubation, CellTiter-Glo; read-out: EC50
row,SMILES,EC50
1,Cc1cc2nc(-c3cccc(-c4ccnn4C)c3)sc2c(-c2ccc(Cl)cc2)c1[C@H](OC(C)(C)C)C(=O)O [Compound 159],46 nM
2,"Cc1cc2nc(-c3cccc(-c4cnn(C)c4C)c3)sc2c(-c2ccc(Cl)cc2)c1[C@H](OC(C)(C)C)C(=O)O [Compound 120, (S)-2-tert-butoxy-2-(7-(4-chlorophenyl)-2-(3-(1,5-dimethyl-1H-pyrazol-4-yl)phenyl)-5-methylbenzo[d]thiazol-6-yl)acetic acid]",23 nM
3,"Cc1cc2nc(N3CC(c4ccc5c(cnn5C)c4)CC3=O)sc2c(-c2ccc(Cl)cc2)c1[C@H](OC(C)(C)C)C(=O)O (stereo partly drawn) [Compound 125, (2S)-2-tert-butoxy-2-(7-(4-chlorophenyl)-5-methyl-2-(4-(1-methyl-1H-indazol-5-yl)-2-oxopyrrolidin-1-yl)benzo[d]thiazol-6-yl)acetic acid]",205 nM

# Same assay, conditions: Human immunodeficiency virus 1, IIIB, MT4, 120 h, Table 2; MT-4 cells infected with HIV-IIIb, 5 days of incubation, CellTiter-Glo; read-out: EC50
row,EC50,SMILES
1,182 nM,COc1ncc(-c2ccc(-c3nc4cc(C)c([C@H](OC(C)(C)C)C(=O)O)c(-c5ccc(Cl)cc5)c4s3)cc2)cn1 [Compound 355]
2,20 nM,Cc1cc2nc(-c3ccc4c(cnn4C4CCN(C)CC4)n3)sc2c(-c2ccc(Cl)cc2)c1[C@H](OC(C)(C)C)C(=O)O [Compound 361]
3,25 nM,Cc1cc2nc(-n3ccc4cnccc4c3=O)sc2c(-c2ccc(Cl)cc2)c1[C@H](OC(C)(C)C)C(=O)O [Compound 450]
4,96 nM,COc1ccc2cc(-c3cc(-c4nc5cc(C)c([C@H](OC(C)(C)C)C(=O)O)c(-c6ccc(Cl)cc6)c5s4)ccn3)ccc2n1 [Compound 457]
5,29 nM,CCCn1ncc2cc(-c3nc4cc(C)c([C@H](OC(C)(C)C)C(=O)O)c(-c5ccc(Cl)cc5)c4s3)ccc21 [Compound 352]
6,7 nM,Cc1cc2nc(-c3ccnc(-c4ccc5c(cnn5C5COC5)c4)c3)sc2c(-c2ccc(Cl)cc2)c1[C@H](OC(C)(C)C)C(=O)O [Compound 372]
7,29 nM,Cc1cc2nc(-c3cc4cnn(C)c4cn3)sc2c(-c2ccc(Cl)cc2)c1[C@H](OC(C)(C)C)C(=O)O [Compound 365]
8,16 nM,Cc1cc2nc(-c3ccc4nc(C)n(C5CCOCC5)c4c3)sc2c(-c2ccc(Cl)cc2)c1[C@H](OC(C)(C)C)C(=O)O [Compound 412]
9,530 nM,Cc1cc2nc(-c3cccc4c3cnn4C)sc2c(-c2ccc(Cl)cc2)c1[C@H](OC(C)(C)C)C(=O)O [Compound 387]
10,13 nM,Cc1cc2nc(-c3ccc4nn(C5CCN(C)CC5)cc4n3)sc2c(-c2ccc(Cl)cc2)c1[C@H](OC(C)(C)C)C(=O)O [Compound 360]
11,173 nM,Cc1cc2nc(-c3ccc4c(c3)OCCO4)sc2c(-c2ccc(Cl)cc2)c1[C@H](OC(C)(C)C)C(=O)O [Compound 446]
12,47 nM,Cc1cc2nc(-c3cn(C)c4ncc(F)cc34)sc2c(-c2ccc(Cl)cc2)c1[C@H](OC(C)(C)C)C(=O)O [Compound 381]
13,6 nM,Cc1cc2nc(-c3ccc4nn(C)cc4n3)sc2c(-c2ccc(Cl)cc2)c1[C@H](OC(C)(C)C)C(=O)O [Compound 366]
14,30 nM,Cc1cc2nc(-c3ccc4c(cnn4C4CCOCC4)c3)sc2c(-c2ccc(Cl)cc2)c1[C@H](OC(C)(C)C)C(=O)O [Compound 348]
15,5 nM,Cc1cc2nc(-c3ccnc(-n4ccc5ncccc5c4=O)c3)sc2c(-c2ccc(Cl)cc2)c1[C@H](OC(C)(C)C)C(=O)O [Compound 447]
16,36 nM,Cc1cc2nc(-c3ccnc(-c4ccc5ccc(=O)[nH]c5c4)c3)sc2c(-c2ccc(Cl)cc2)c1[C@H](OC(C)(C)C)C(=O)O [Compound 453]
17,52 nM,Cc1cc2nc(-c3ccnc(-c4ccc5c(c4)[nH]c(=O)n5C)c3)sc2c(-c2ccc(Cl)cc2)c1[C@H](OC(C)(C)C)C(=O)O [Compound 463]

row,SMILES,EC50
1,"Cc1cc2nc(N3CCN(C)[C@@H](c4ccc5c(cnn5C)c4)C3)sc2c(-c2ccc(Cl)cc2)c1[C@H](OC(C)(C)C)C(=O)O [Compound 491, (S)-2-tert-butoxy-2-(7-(4-chlorophenyl)-5-methyl-2-((S)-4-methyl-3-(1-methyl-1H-indazol-5-yl)piperazin-1-yl)benzo[d]thiazol-6-yl)acetic acid]",51 nM
2,"COc1ncccc1-c1cc(-c2nc3cc(C)c([C@H](OC(C)(C)C)C(=O)O)c(-c4ccc(Cl)cc4)c3s2)ccn1 [Compound 233, (S)-2-tert-butoxy-2-(7-(4-chlorophenyl)-2-(2′-methoxy-2,3′-bipyridin-4-yl)-5-methylbenzo[d]thiazol-6-yl)acetic acid]",33 nM
3,"Cc1cc2nc(-c3ccc4nc(C)n([C@H]5CCNC5)c4c3)sc2c(-c2ccc(Cl)cc2)c1[C@H](OC(C)(C)C)C(=O)O [Compound 301, (S)-2-tert-butoxy-2-(7-(4-chlorophenyl)-5-methyl-2-(2-methyl-1-((S)-pyrrolidin-3-yl)-1H-benzo[d]imidazol-6-yl)benzo[d]thiazol-6-yl)acetic acid]",109 nM
4,"Cc1cc2nc(N3CCN(C)[C@H](c4ccc5c(cnn5C)c4)C3)sc2c(-c2ccc(Cl)cc2)c1[C@H](OC(C)(C)C)C(=O)O [Compound 492, (S)-2-tert-butoxy-2-(7-(4-chlorophenyl)-5-methyl-2-((R)-4-methyl-3-(1-methyl-1H-indazol-5-yl)piperazin-1-yl)benzo[d]thiazol-6-yl)acetic acid]",3 nM
5,"Cc1cc2nc(-c3ccnc(-c4ccc5nc(N)ccc5c4)n3)sc2c(-c2ccc(Cl)cc2)c1[C@H](OC(C)(C)C)C(=O)O [Compound 489, (S)-2-(2-(2-(2-aminoquinolin-6-yl)pyrimidin-4-yl)-7-(4-chlorophenyl)-5-methylbenzo[d]thiazol-6-yl)-2-tert-butoxyacetic acid]",20 nM
6,"Cc1cc2nc(-c3ccnc(N4CCN(C)[C@H](C)C4)n3)sc2c(-c2ccc(Cl)cc2)c1[C@H](OC(C)(C)C)C(=O)O [Compound 469, (S)-2-tert-butoxy-2-(7-(4-chlorophenyl)-2-(2-((R)-3,4-dimethylpiperazin-1-yl)pyrimidin-4-yl)-5-methylbenzo[d]thiazol-6-yl)acetic acid]",8 nM
7,"Cc1ccc(-c2nc3cc(C)c([C@H](OC(C)(C)C)C(=O)O)c(-c4ccc(Cl)cc4)c3s2)nc1-c1ccc2c(cnn2C)c1 [Compound 313, (S)-2-tert-butoxy-2-(7-(4-chlorophenyl)-5-methyl-2-(5-methyl-6-(1-methyl-1H-indazol-5-yl)pyridin-2-yl)benzo[d]thiazol-6-yl)acetic acid]",14 nM
8,"Cc1cc2nc(-c3cnc4c(c3)cc(C)n4C)sc2c(-c2ccc(Cl)cc2)c1[C@H](OC(C)(C)C)C(=O)O [Compound 197, (S)-2-tert-butoxy-2-(7-(4-chlorophenyl)-2-(1,2-dimethyl-1H-pyrrolo[2,3-b]pyridin-5-yl)-5-methylbenzo[d]thiazol-6-yl)acetic acid]",12 nM
9,"Cc1cc2nc(-c3ccnc(-c4cc(C)c5nn(C)cc5c4)c3)sc2c(-c2ccc(Cl)cc2)c1[C@H](OC(C)(C)C)C(=O)O [Compound 216, (S)-2-tert-butoxy-2-(7-(4-chlorophenyl)-2-(2-(2,7-dimethyl-2H-indazol-5-yl)pyridin-4-yl)-5-methylbenzo[d]thiazol-6-yl)acetic acid]",15 nM
10,"Cc1cc2nc(-c3ccnc(-n4ncc5ccccc54)c3)sc2c(-c2ccc(Cl)cc2)c1[C@H](OC(C)(C)C)C(=O)O [Compound 189, (S)-2-(2-(2-(1H-indazol-1-yl)pyridin-4-yl)-7-(4-chlorophenyl)-5-methylbenzo[d]thiazol-6-yl)-2-tert-butoxy acetic acid]",249 nM
11,"Cc1cc2nc(N3CCO[C@@H](c4ccc5c(cnn5C)c4)C3)sc2c(-c2ccc(Cl)cc2)c1[C@H](OC(C)(C)C)C(=O)O [Compound 326, (S)-2-tert-butoxy-2-(7-(4-chlorophenyl)-5-methyl-2-((S)-2-(1-methyl-1H-indazol-5-yl)morpholino)benzo[d]thiazol-6-yl)acetic acid]",66 nM
12,"Cc1cc2nc(-c3nccc(N4CCN(C)CC4)n3)sc2c(-c2ccc(Cl)cc2)c1[C@H](OC(C)(C)C)C(=O)O [Compound 281, (S)-2-tert-butoxy-2-(7-(4-chlorophenyl)-5-methyl-2-(4-(4-methylpiperazin-1-yl)pyrimidin-2-yl)benzo[d]thiazol-6-yl)acetic acid]",31 nM
13,"Cc1cc2nc(-c3cccc(N4CCN(C5COC5)CC4)n3)sc2c(-c2ccc(Cl)cc2)c1[C@H](OC(C)(C)C)C(=O)O [Compound 308, (S)-2-tert-butoxy-2-(7-(4-chlorophenyl)-5-methyl-2-(6-(4-(oxetan-3-yl)piperazin-1-yl)pyridin-2-yl)benzo[d]thiazol-6-yl)acetic acid]",6 nM
14,"Cc1cc2nc(-c3cnc(N4CCN(C(C)C)CC4)s3)sc2c(-c2ccc(Cl)cc2)c1[C@H](OC(C)(C)C)C(=O)O [Compound 485, (S)-2-tert-butoxy-2-(7-(4-chlorophenyl)-2-(2-(4-isopropylpiperazin-1-yl)thiazol-5-yl)-5-methylbenzo[d]thiazol-6-yl)acetic acid]",15 nM
15,"Cc1cc2nc(-c3ccc4c(c3)c(C)nn4C)sc2c(-c2ccc(Cl)cc2)c1[C@H](OC(C)(C)C)C(=O)O [Compound 254, (S)-2-tert-butoxy-2-(7-(4-chlorophenyl)-2-(1,3-dimethyl-1H-indazol-5-yl)-5-methylbenzo[d]thiazol-6-yl)acetic acid]",8 nM
16,"Cc1cc2nc(-c3ccnc(N4CCn5cnnc5C4)c3)sc2c(-c2ccc(Cl)cc2)c1[C@H](OC(C)(C)C)C(=O)O [Compound 223, (S)-2-tert-butoxy-2-(7-(4-chlorophenyl)-2-(2-(5,6-dihydro-[1,2,4]triazolo[4,3-a]pyrazin-7(8H)-yl)pyridin-4-yl)-5-methylbenzo[d]thiazol-6-yl)acetic acid]",312 nM
